Assay results from US4345938A, “Herbicidal 2-haloacetanilides” (Monsanto Company, priority 1980, dated 1982).
Like-named read-outs stand apart in the source and are kept apart here.

How the values were obtained:
[1] = test system: Monochoria vaginalis; experiment: Field transplant rice test, applied 0 DAT, MV; format: in vivo; details: Pontederia vaginalis, 0 h, read-out: Percent Inhibition, MV; for inhibition at 375 g/ha: 0.375 Kg/Ha; for inhibition at 750 g/ha: 0.75 Kg/Ha; for inhibition at 1500 g/ha: 1.5 Kg/Ha; for inhibition at 3000 g/ha: 3.0 Kg/Ha
Summary of the method: (§1)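 Field test in transplanted rice, herbicide applied as granules (2.5% or 5.0% w/w active) at transplanting (0 DAT). Rates from 3.0 kg/ha down to 0.375 kg/ha. Weed control observed weekly from 2 to 6 weeks after transplant, reported at 2, 4 and 6 WAT.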

[2] = test system: Eleocharis kuroguwai; experiment: Field transplant rice test, applied 9 DAT, EK; format: in vivo; details: for inhibition at 375 g/ha / inhibition at 750 g/ha / inhibition at 1500 g/ha / inhibition at 3000 g/ha: Eleocharis kuroguwai, 216 h, read-out: Percent Inhibition, EK; for inhibition at 375 g/ha: 0.375 Kg/Ha; for inhibition at 750 g/ha: 0.75 Kg/Ha; for inhibition at 1500 g/ha: 1.5 Kg/Ha; for inhibition at 3000 g/ha: 3.0 Kg/Ha
Summary of the method: (§2)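 Field test in transplanted rice, herbicides applied as granules (2.5% or 5.0% w/w active) 9 days after transplant at 3.0 down to 0.375 kg/ha. Weed control observed weekly from 3 to 7 weeks after transplant.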

[3] = test system: Rice; experiment: Field transplant rice test, applied 0 DAT, rice injury; format: in vivo; details: for inhibition at 375 g/ha / inhibition at 750 g/ha / inhibition at 1500 g/ha / inhibition at 3000 g/ha: Oryza sativa, 0 h, read-out: Percent Inhibition, Rice; for inhibition at 375 g/ha: 0.375 Kg/Ha; for inhibition at 750 g/ha: 0.75 Kg/Ha; for inhibition at 1500 g/ha: 1.5 Kg/Ha; for inhibition at 3000 g/ha: 3.0 Kg/Ha
Summary of the method: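 Field test in transplant rice with herbicide applied as granules at transplanting (0 DAT), at rates from 3.0 kg/ha down to 0.375 kg/ha. Injury was rated weekly from 2 to 6 weeks after transplant. Granules held 2.5% or 5.0% herbicide by weight, depending on compound.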

[4] = test system: Rice; experiment: Greenhouse transplant rice test, rice injury; format: in vivo, Rice (Bluebelle); details: Oryza sativa, about 3 WAT, read-out: Percent Inhibition, Rice
Excerpt: (§3) The test procedure used in this greenhouse test is as follows: Ray silt loam top soil containing about 0.05% by weight of krillium and sifted through a […] screen is fumigated about 5-10 days prior to use. Pots are then filled with said Ray silt loam soil to a level to allow for a 1 in. (2.54 cm) flooding depth. Rice plants (Bluebelle) of 2 to 3 weeks age are transplanted to the pots and bulbs or seeds of the test weeds also planted in the pots. The pots are then flooded and the test chemical applied to the surface of the flood water. The flood water is reduced to allow for germination of the Echinochloa crus-galli (barnyardgrass) seed and subsequently reflooded and maintained in that condition. Observations of percent inhibition using a scale of 0-100% are made about 3 weeks after transplant (WAT).
(§4) The test data in Table III for all compounds was obtained under identical test conditions. The weeds used in the tests herein have the following abbreviations in the tables: Echinochloa crus-galli (EC), Monochloria vaginalis (MV), Cyperus Serotinus (CS), Eleocharis Kuroguwai (EK) and Sagittaria trifolia (ST).

[5] = test system: Cyperus serotinus; experiment: Field transplant rice test, applied 9 DAT, CS; format: in vivo; details: for inhibition at 375 g/ha / inhibition at 750 g/ha / inhibition at 1500 g/ha / inhibition at 3000 g/ha: Cyperus serotinus, 216 h, read-out: Percent Inhibition, CS; for inhibition at 375 g/ha: 0.375 Kg/Ha; for inhibition at 750 g/ha: 0.75 Kg/Ha; for inhibition at 1500 g/ha: 1.5 Kg/Ha; for inhibition at 3000 g/ha: 3.0 Kg/Ha
Summary of the method: as §2

[6] = test system: Sagittaria trifolia; experiment: Greenhouse transplant rice test, ST; format: in vivo
Excerpt: as §3, §4

[7] = test system: Cyperus serotinus; experiment: Field transplant rice test, applied 0 DAT, CS; format: in vivo; details: 0 h, read-out: Percent Inhibition, CS; for inhibition at 375 g/ha: 0.375 Kg/Ha; for inhibition at 750 g/ha: 0.75 Kg/Ha; for inhibition at 1500 g/ha: 1.5 Kg/Ha; for inhibition at 3000 g/ha: 3.0 Kg/Ha
Summary of the method: as §1

CCCCOc1cccc(CC)c1N(C)C(=O)CCl [Example 1, N-methyl-2'-n-butoxy-6'-ethyl-2-chloroacetanilide]
inhibition at 375 g/ha ([1]; 2 WAT): 98%
inhibition at 375 g/ha ([1]; 4 WAT): 100%
inhibition at 375 g/ha ([1]; 6 WAT): 93%
inhibition at 750 g/ha ([1]; 2 WAT): 100%
inhibition at 750 g/ha ([1]; 4 WAT): 99%
inhibition at 750 g/ha ([1]; 6 WAT): 97%
inhibition at 1500 g/ha ([1]; 2 WAT): 100%
inhibition at 1500 g/ha ([1]; 4 WAT): 100%
inhibition at 1500 g/ha ([1]; 6 WAT): 100%
inhibition at 3000 g/ha ([1]; 2 WAT): 100%
inhibition at 3000 g/ha ([1]; 4 WAT): 100%
inhibition at 3000 g/ha ([1]; 6 WAT): 100%
inhibition at 375 g/ha ([2]; 3 WAT): 80%
inhibition at 375 g/ha ([2]; 5 WAT): 52%
inhibition at 375 g/ha ([2]; 7 WAT): 15%
inhibition at 750 g/ha ([2]; 3 WAT): 83%
inhibition at 750 g/ha ([2]; 5 WAT): 68%
inhibition at 750 g/ha ([2]; 7 WAT): 13%
inhibition at 1500 g/ha ([2]; 3 WAT): 82%
inhibition at 1500 g/ha ([2]; 5 WAT): 65%
inhibition at 1500 g/ha ([2]; 7 WAT): 0%
inhibition at 3000 g/ha ([2]; 3 WAT): 93%
inhibition at 3000 g/ha ([2]; 5 WAT): 93%
inhibition at 3000 g/ha ([2]; 7 WAT): 67%
selectivity factor (GR15/GR85), EK in transplant rice ([2]; up to 5 WAT): about 2
safety in rice [3]: safe in rice at rates above 1.5 kg/ha and slightly less than 3.0 kg/ha
inhibition at 375 g/ha ([3]; 2 WAT): 10%
inhibition at 375 g/ha ([3]; 4 WAT): 7%
inhibition at 375 g/ha ([3]; 6 WAT): 5%
inhibition at 750 g/ha ([3]; 2 WAT): 3%
inhibition at 750 g/ha ([3]; 4 WAT): 0%
inhibition at 750 g/ha ([3]; 6 WAT): 2%
inhibition at 1500 g/ha ([3]; 2 WAT): 5%
inhibition at 1500 g/ha ([3]; 4 WAT): 0%
inhibition at 1500 g/ha ([3]; 6 WAT): 2%
inhibition at 3000 g/ha ([3]; 2 WAT): 25%
inhibition at 3000 g/ha ([3]; 4 WAT): 22%
inhibition at 3000 g/ha ([3]; 6 WAT): 23%
inhibition at 280 g/ha ([4]; 0.28 Kg/Ha): 5%
inhibition at 560 g/ha ([4]; 0.56 Kg/Ha): 0%
inhibition at 1120 g/ha ([4]; 1.12 Kg/Ha): 15%
inhibition at 2240 g/ha ([4]; 2.24 Kg/Ha): 20%
inhibition at 375 g/ha ([5]; 3 WAT): 100%
inhibition at 375 g/ha ([5]; 5 WAT): 98%
inhibition at 375 g/ha ([5]; 7 WAT): 97%
inhibition at 750 g/ha ([5]; 3 WAT): 93%
inhibition at 750 g/ha ([5]; 5 WAT): 93%
inhibition at 750 g/ha ([5]; 7 WAT): 95%
inhibition at 1500 g/ha ([5]; 3 WAT): 82%
inhibition at 1500 g/ha ([5]; 5 WAT): 100%
inhibition at 1500 g/ha ([5]; 7 WAT): 67%
inhibition at 3000 g/ha ([5]; 3 WAT): 100%
inhibition at 3000 g/ha ([5]; 5 WAT): 100%
inhibition at 3000 g/ha ([5]; 7 WAT): 100%
selectivity factor (GR15/GR85), CS in transplant rice ([5]; between 3 WAT and 7 WAT): 16
selective control of ST in rice ([6]; 0.56 kg/ha): positive selective control
inhibition at 280 g/ha ([6]; Sagittaria trifolia, 0.28 Kg/Ha, about 3 WAT, read-out: Percent Inhibition, ST): 75%
inhibition at 560 g/ha ([6]; Sagittaria trifolia, 0.56 Kg/Ha, about 3 WAT, read-out: Percent Inhibition, ST): 85%
inhibition at 1120 g/ha ([6]; Sagittaria trifolia, 1.12 Kg/Ha, about 3 WAT, read-out: Percent Inhibition, ST): 85%
inhibition at 2240 g/ha ([6]; Sagittaria trifolia, 2.24 Kg/Ha, about 3 WAT, read-out: Percent Inhibition, ST): 90%
inhibition at 375 g/ha ([7]; 2 WAT): 77%
inhibition at 375 g/ha ([7]; 4 WAT): 73%
inhibition at 375 g/ha ([7]; 6 WAT): 50%
inhibition at 750 g/ha ([7]; 2 WAT): 62%
inhibition at 750 g/ha ([7]; 4 WAT): 53%
inhibition at 750 g/ha ([7]; 6 WAT): 25%
inhibition at 1500 g/ha ([7]; 2 WAT): 92%
inhibition at 1500 g/ha ([7]; 4 WAT): 83%
inhibition at 1500 g/ha ([7]; 6 WAT): 73%
inhibition at 3000 g/ha ([7]; 2 WAT): 95%
inhibition at 3000 g/ha ([7]; 4 WAT): 99%
inhibition at 3000 g/ha ([7]; 6 WAT): 100%
